According to patent publication US9392791B2, “Amide compound and use thereof for pest control” (Sumitomo Chemical Company, priority 2012, dated 2016):

Legend:
[1] = tested on: Haemaphysalis longicornis; assay: Test Example 11: coated screw tube, nymphal ticks Haemaphysalis longicornis; assay type: in vivo; details: 2 mg compound in 0.2 mL acetone coated on inner wall of screw tube, non-blood-sucking nymphal ticks, after 2 days
Description: 2 mg of each of Compounds of Present Invention 1, 2, 13, 20, 21, 45 to 47, 52 to 55 and 57 and Intermediate Compound M6-13 was weighed in a screw tube (Maruemu No. 5; 27×55 mm), and 0.2 mL of acetone was added thereto and sealed with a cap to dissolve the compound. The screw tube was rotated and inverted to uniformity coat the drug solution onto the whole inner wall of the tube. After removing the cap, the solution was air-dried for about 2 hours, then non-blood-sucking nymphal ticks, Haemaphysalis longicornis (5 ticks/group) were released, and the tube was sealed with the cap. After 2 days, the number of dead ticks was examined, and the mortality was calculated according to the following equation: Mortality (%)=100×(Number of dead ticks/Number of tested ticks).

Musca domestica = assay: Test Example 8: treated filter paper with sucrose bait, Musca domestica female adults; assay type: in vivo; details: 500 ppm, 0.7 ml on filter paper, after 24 hours
Description: The formulations of Compounds of Present Invention 1 to 3, 9, 13 to 16 and 57 as obtained in Formulation Example 5 were diluted with water, so as to have a concentration of the active ingredient of 500 ppm, to prepare a diluted liquid for test.
A filter paper having a diameter of 5.5 cm was spread on the bottom of a polyethylene cup having the same diameter and 0.7 ml of the diluted liquid for test was added dropwise onto the filter paper, and 30 mg of sucrose was uniformly placed as bait. Into the polyethylene cup, 10 female adults of Musca domestica were released, and the cup was sealed with a lid. After 24 hours, survived and dead number of Musca domestica was examined, and the mortality was calculated.

Compound	mortality [1] [%]	mortality (Musca domestica) [%]
CCSc1ccccc1C(=O)N(C)c1ccc(C(F)(F)C(F)(F)F)cn1 [compound 13]	100	–
CC[S+]([O-])c1cc(C(F)(F)F)ccc1C(=O)N(C)c1ccc(C(F)(F)C(F)(F)F)cn1 (stereo not shown) [compound 20]	100	–
CC[S+]([O-])c1cc(C(F)(F)F)ccc1C(=O)N(C)c1ccc(SC(F)(F)F)cn1 (stereo not shown) [compound 21]	100	–
CC[S+]([O-])c1ccccc1C(=O)N(C)c1ccc(SC(F)(F)F)cn1 (stereo not shown) [compound 57]	–	100
